Data from patent US20100249439A1, “PROCESS FOR CONTROLLED CRYSTAL SIZE IN 1,2-SUBSTITUTED 3,4-DIOXO-1-CYCLOBUTENE COMPOUNDS” (priority 2007, published 2010).

Experiment: Specific cake resistance measurement (pressure filtration of crystal slurry, Tiller equation)
Assay type: physicochemical
Experimental: There follows examples of the present invention controlled crystallization process yielding crystalline material having improved filter cake specific resistance. For each of these examples, the filter cake specific resistance was measured in accordance with the following procedure. Specific Cake Resistance Measurement Procedure V(i): Into a pressure filter, the crystal slurry was filled. The filtration was then carried out under a constant pressure while the filtrate volume along with the filtration time was logged. During the cake formation, the relationship between the filtrate volume and the filtration time can be described by the Tiller equation: [formula] where: μ is the viscosity of filtrate, lb/ft-s or Pa·s; α is a specific cake resistance, ft, lb or […]; c is the mass solid deposited in the filter per unit volume of filtrate, lb/ft^3 or kg/m^3: A is the filtration area, ft^2 or m^2; gc is Newton's law proportionality factor; p is the pressure, lbf/ft2 or atm; Rm is the filter-medium resistance, ft^−1 or m^−1. The specific cake resistance a can be calculated from the slope of the linear plot of t/V vs. V.

- filter cake specific resistance (Form 4 crystals precipitated from the reaction mixture of Scheme IIa steps a and b, conventional crystallization without temperature cycling): about 8.0×10^11 m/kg
- filter cake specific resistance (Form 4 monohydrate crystals from n-propanol/water after seeding and temperature cycling (Va: 4 cycles 53-20° C.; Vb: 8 cycles; Vc: 19 cycles 43-20° C.), listed as Example Va): 6.4×10^11 m/Kg
- filter cake specific resistance (Form 4 monohydrate crystals from n-propanol/water after seeding and temperature cycling (Va: 4 cycles 53-20° C.; Vb: 8 cycles; Vc: 19 cycles 43-20° C.), listed as Example Vb): 2.5×10^11 m/Kg
- filter cake specific resistance (Form 4 monohydrate crystals from n-propanol/water after seeding and temperature cycling (Va: 4 cycles 53-20° C.; Vb: 8 cycles; Vc: 19 cycles 43-20° C.), listed as Example Vc): 1.99×10^11 m/Kg
SMILES: CC[C@@H](Nc1c(Nc2cccc(C(=O)N(C)C)c2O)c(=O)c1=O)c1ccc(C)o1 [compound of Formula I, 2-Hydroxy-N,N-dimethyl-3-[[2-[[1(R)-(5-methyl-2-furanyl)propyl]amino]-3,4-dioxo-1-cyclobuten-1-yl]amino]benzamide]
